Laboratory results as given in patent publication US6737383B1, “Herbicidal oxadiazolidines” (priority 1999, dated 2004).

Tests used:
scentless chamomile = assay: Test E scentless chamomile; type: in vivo, Matricaria inodora; settings: Postemergence; for Plant response rating, Scentless chamo: 0 to 100 scale
Experimental: (§1) Compounds evaluated in this test were formulated in a non-phytotoxic solvent mixture which included a surfactant and applied to plants that were in the 1- to 4-leaf stage (postemergence application). A mixture of sandy loam soil and greenhouse potting mix in a 60:40 ratio was used for the postemergence test.
(§2) Plantings of these crops and weed species were adjusted to produce plants of appropriate size for the postemergence test. All plant species were grown using normal greenhouse practices. Crop and weed species include annual bluegrass (Poa annua), blackgrass (Alopecurus myosuroides), black nightshade (Solanum nigra), chickweed (Stellaria media), common poppy (Papaver rhoeas), deadnettle (Lamium amplexicaule), downy brome (Bromus tectorum), field violet (Viola arvensis), galium (Galium aparine), green foxtail (Setaria viridis), Italian ryegrass (Lolium multiflorum), jointed goatgrass (Aegilops cylindrica), kochia (Kochia scoparia), lambsquarters (Chenopodium album), littleseed canarygrass (Phalaris minor), rape (Brassica napus), redroot pigweed (Amaranthus retroflexus), Russian thistle (Salsola kali), scentless chamomile (Matricaria inodora), spring barley (Hordeum vulgare), sugar beet (Beta vulgaris), sunflower (Helianthus annuus), ivyleaf speedwell (Veronica hederaefolia), spring wheat (Triticum aestivum), winter wheat (Triticum aestivum), wild buckwheat (Polygonum convolvulus), wild mustard (Sinapis arvensis), wild oat (Avena fatua), windgrass (Apera spica-venti) and winter barley (Hordeum vulgare).
(§3) Treated plants and untreated controls were maintained in a greenhouse for approximately 21 to 28 days, after which all treated plants were compared to untreated controls and visually evaluated. […] A dash response (-) means no test result.

field violet [1] = assay: Test E field violet; type: in vivo, Viola arvensis; settings: Preemergence
spring barley = assay: Test E spring barley; type: in vivo, Hordeum vulgare; settings: Postemergence; for Plant response rating, Spring Barley: 0 to 100 scale
How it was run: (§4)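 Greenhouse test: for postemergence, foliar application at 1- to 4-leaf stage; compound in non-phytotoxic solvent with surfactant. Rating is visual, relative to untreated controls, about 21 to 28 days after treatment.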

Alexandergrass = assay: Test D Alexandergrass; type: in vivo, Brachiaria plantaginea; settings: Postemergence
sourgrass = assay: Test D sourgrass; type: in vivo, Trichachne insularis; settings: Postemergence, 0 to 100 scale
field violet [2] = assay: Test E field violet; type: in vivo, Viola arvensis; settings: Postemergence; for Plant response rating, Field violet: 0 to 100 scale
How it was run: as §4

Spanishneedles = assay: Test D Spanishneedles; type: in vivo, Bidens bipinnata; settings: Postemergence, 0 to 100 scale; for Spanishneedles plant response rating: 0 no injury, 100 complete control
jointed goatgrass = assay: Test E jointed goatgrass; type: in vivo, Aegilops cylindrica; settings: Postemergence; for Plant response rating, Jointed goatgra: 0 to 100 scale
Experimental: as §1, §2, §3

rape = assay: Test E rape; type: in vivo, Brassica napus; settings: Postemergence; for Plant response rating, Rape: 0 to 100 scale
How it was run: as §4

annual bluegrass [3] = assay: Test E annual bluegrass; type: in vivo, Poa annua; settings: Postemergence; for Plant response rating, Annual bluegras: 0 to 100 scale
Experimental: as §1, §2, §3

sunflower = assay: Test E sunflower; type: in vivo, Helianthus annuus; settings: Preemergence
common poppy = assay: Test E common poppy; type: in vivo, Papaver rhoeas; settings: Preemergence
black nightshade = assay: Test E black nightshade; type: in vivo, Solanum nigra; settings: Postemergence; for Plant response rating, Blk nightshade: 0 to 100 scale
Experimental: as §1, §2, §3

sugar beet = assay: Test E sugar beet; type: in vivo, Beta vulgaris; settings: Preemergence
galium = assay: Test E galium; type: in vivo, Galium aparine; settings: Postemergence; for Plant response rating, Galium: 0 to 100 scale
How it was run: as §4

downy brome = assay: Test E downy brome; type: in vivo, Bromus tectorum; settings: Postemergence; for Plant response rating, Downy brome: 0 to 100 scale
How it was run: as §4

common pursiane = assay: Test D common purslane; type: in vivo, Portulaca oleracea; settings: Postemergence, 0 to 100 scale
dallisgrass = assay: Test D dallisgrass; type: in vivo, Paspalum dilatatum; settings: Postemergence, 0 to 100 scale
littleseed canarygrass [4] = assay: Test E littleseed canarygrass; type: in vivo, Phalaris minor; settings: Postemergence; for Plant response rating, LS canarygrass: 0 to 100 scale
How it was run: as §4

annual bluegrass [5] = assay: Test E annual bluegrass; type: in vivo, Poa annua; settings: Preemergence
windgrass [6] = assay: Test E windgrass; type: in vivo, Apera spica-venti; settings: Preemergence
littleseed canarygrass [7] = assay: Test E littleseed canarygrass; type: in vivo, Phalaris minor; settings: Preemergence
windgrass [8] = assay: Test E windgrass; type: in vivo, Apera spica-venti; settings: Postemergence
How it was run: as §4

[9] = Rate 500 g/ha, 0 no effect, 100 complete control
[10] = Rate 250 g/ha, 0 to 100 scale where 0 is no effect and 100 is complete control
[11] = Rate 125 g/ha, 0 to 100 scale (0 no effect, 100 complete control)
[12] = Rate 500 g/ha, 0 to 100 scale where 0 is no effect and 100 is complete control
[13] = Rate 64 g/ha, 0 no injury, 100 complete control
[14] = Rate 125 g/ha, 0 no injury, 100 complete control

C=CCn1c(=O)on(C(=O)N(c2ccc(F)cc2)C(C)C)c1=O [Compound 146]
40: Plant response rating, Alexandergrass (Alexandergrass; Rate 250 g/ha, 0 to 100 scale) | Plant response rating, Jointed goatgra (jointed goatgrass; [9]) | Plant response rating, Rape (rape; Rate 125 g/ha) | Blk nightshade plant response rating (black nightshade; [10]) | Plant response rating, LS canarygrass (littleseed canarygrass [7]; [11])
0: Plant response rating, Field violet (field violet [2]; Rate 125 g/ha) | Field violet plant response rating (field violet [2]; [10]) | Plant response rating, Galium (galium; Rate 125 g/ha) | Downy brome plant response rating (downy brome; [10]) | Plant response rating, C. purslane (common pursiane; [13]) | Plant response rating, C. purslane (common pursiane; [14])
70: Plant response rating, Blk nightshade (black nightshade; [9])
5: Plant response rating, Downy brome (downy brome; [9])
85: Plant response rating, Annual bluegras (annual bluegrass [3]; Rate 62 g/ha) | Plant response rating, LS canarygrass (littleseed canarygrass [7]; [12]) | Plant response rating, Windgrass (windgrass [8]; Rate 62 g/ha, 0 to 100 scale)
90: Plant response rating, Annual bluegras (annual bluegrass [5]; [12])
10: Plant response rating, Scentless chamo (scentless chamomile; Rate 125 g/ha) | Plant response rating, Scentless chamo (scentless chamomile; [9]) | Scentless chamo plant response rating (scentless chamomile; [10]) | Plant response rating, Field violet (field violet [1]; [11]) | Plant response rating, Spring Barley (spring barley; Rate 125 g/ha) | Spring Barley plant response rating (spring barley; [10]) | Plant response rating, Alexandergrass (Alexandergrass; Rate 64 g/ha, 0 to 100 scale, 0 no injury, 100 complete control) | Plant response rating, Field violet (field violet [2]; [9]) | Spanishneedles plant response rating (Spanishneedles; Rate 64 g/ha) | Spanishneedles plant response rating (Spanishneedles; Rate 125 g/ha) | Plant response rating, Spanishneedles (Spanishneedles; Rate 250 g/ha) | Jointed goatgra plant response rating (jointed goatgrass; [10]) | Plant response rating, Annual bluegras (annual bluegrass [3]; Rate 125 g/ha) | Annual bluegras plant response rating (annual bluegrass [3]; [10]) | Plant response rating, Downy brome (downy brome; Rate 125 g/ha)
95: Windgrass plant response rating (windgrass [8]; [10])
60: Plant response rating, Rape (rape; Rate 62 g/ha) | Plant response rating, Rape (rape; [9]) | Plant response rating, Sugar beet (sugar beet; [11]) | Sugar beet plant response rating (0 to 100 scale) (sugar beet; Rate 250 g/ha) | Plant response rating, Galium (galium; [9]) | Plant response rating, Dallisgrass (dallisgrass; Rate 250 g/ha) | Plant response rating, Annual bluegras (annual bluegrass [5]; [11])
15: Plant response rating, Jointed goatgra (jointed goatgrass; Rate 125 g/ha) | Galium plant response rating (galium; [10])
80: Plant response rating, Sourgrass (sourgrass; Rate 250 g/ha) | Plant response rating, Sourgrass (sourgrass; Rate 500 g/ha) | Plant response rating, Sugar beet (sugar beet; [12]) | Plant response rating, Dallisgrass (dallisgrass; Rate 500 g/ha) | Annual bluegras plant response rating (0 to 100 scale) (annual bluegrass [5]; Rate 250 g/ha)
100: Plant response rating, Common poppy (common poppy; [11]) | Common poppy plant response rating (0 to 100 scale) (common poppy; Rate 250 g/ha) | Plant response rating, Common poppy (common poppy; [12]) | Plant response rating, Windgrass (windgrass [6]; [11]) | Windgrass plant response rating (0 to 100 scale) (windgrass [6]; Rate 250 g/ha) | Plant response rating, Windgrass (windgrass [6]; [12])
20: Plant response rating, Scentless chamo (scentless chamomile; Rate 62 g/ha) | Plant response rating, Spring Barley (spring barley; Rate 62 g/ha) | Plant response rating, Spring Barley (spring barley; [9]) | Plant response rating, Alexandergrass (Alexandergrass; Rate 125 g/ha, 0 to 100 scale, 0 no injury, 100 complete control) | Plant response rating, Spanishneedles (Spanishneedles; Rate 500 g/ha) | Plant response rating, Sunflower (sunflower; [11]) | Plant response rating, C. purslane (common pursiane; Rate 250 g/ha) | Plant response rating, C. purslane (common pursiane; Rate 500 g/ha)
75: LS canarygrass plant response rating (0 to 100 scale) (littleseed canarygrass [7]; Rate 250 g/ha)
50: Plant response rating, Field violet (field violet [1]; [12]) | Sourgrass plant response rating (sourgrass; [13]) | Plant response rating, Sourgrass (sourgrass; [14]) | Plant response rating, Field violet (field violet [2]; Rate 62 g/ha) | Rape plant response rating (rape; [10]) | Plant response rating, Blk nightshade (black nightshade; Rate 62 g/ha) | Plant response rating, Blk nightshade (black nightshade; Rate 125 g/ha) | Plant response rating, Galium (galium; Rate 62 g/ha)
30: Field violet plant response rating (0 to 100 scale) (field violet [1]; Rate 250 g/ha) | Sourgrass plant response rating (sourgrass; [14]) | Sunflower plant response rating (0 to 100 scale) (sunflower; Rate 250 g/ha) | Plant response rating, Sunflower (sunflower; [12]) | Plant response rating, Dallisgrass (dallisgrass; [14]) | Plant response rating, LS canarygrass (littleseed canarygrass [4]; Rate 62 g/ha) | Plant response rating, LS canarygrass (littleseed canarygrass [4]; Rate 125 g/ha) | LS canarygrass plant response rating (littleseed canarygrass [4]; [10])
65: Plant response rating, Alexandergrass (Alexandergrass; Rate 500 g/ha, 0 to 100 scale (0 no injury, 100 complete control)) | Plant response rating, Alexandergrass (Alexandergrass; Rate 500 g/ha, 0 to 100 scale) | Plant response rating, Annual bluegras (annual bluegrass [3]; [9]) | Plant response rating, LS canarygrass (littleseed canarygrass [4]; [9])
55: Plant response rating, Jointed goatgra (jointed goatgrass; Rate 62 g/ha) | Plant response rating, Downy brome (downy brome; Rate 62 g/ha)
